Measurements taken from patent US20040121031A1, “Novel topical skin care and nutraceutical applications of Glabridin or extracts containing a defined amount (4-90%) of Glabridin” (priority 2002, published 2004).

Assay: Ease of solubility in cosmetically acceptable solvents
Type: physicochemical
Settings: in contrast to Ursolic acid
Description: In order to formulate an effective cosmetic product, the individual ingredients have to be solublized in cosmetically acceptable solvents. The following table indicates the ease of solubility of glabridin and the licorice extract in contrast to Ursolic acid, a terpenoid compound used in cosmetics for similar claims.

In the case of `CC1(C)C=Cc2c(ccc3c2OC[C@@H](c2ccc(O)cc2O)C3)O1` [glabridin, Glabridin], the ease of solubility was “much more easily soluble than Ursolic acid”.
